Drawing on patent US7160888B2, “[1,8]naphthyridin-2-ones and related compounds for the treatment of schizophrenia” (Warner Lambert Company LLC, priority 2003, dated 2007), this text covers Emax for 26 compounds.

The test has as its target D2 receptor (Homo sapiens, UniProt P14416). Description: [3H]Thymidine uptake assay for D2 intrinsic activity. The class given is cell-based. The conditions noted are these: test compound 1 μM, 1 μM Quinpirole = 100% intrinsic activity.

Chain of D2 receptor (P14416 whole entry): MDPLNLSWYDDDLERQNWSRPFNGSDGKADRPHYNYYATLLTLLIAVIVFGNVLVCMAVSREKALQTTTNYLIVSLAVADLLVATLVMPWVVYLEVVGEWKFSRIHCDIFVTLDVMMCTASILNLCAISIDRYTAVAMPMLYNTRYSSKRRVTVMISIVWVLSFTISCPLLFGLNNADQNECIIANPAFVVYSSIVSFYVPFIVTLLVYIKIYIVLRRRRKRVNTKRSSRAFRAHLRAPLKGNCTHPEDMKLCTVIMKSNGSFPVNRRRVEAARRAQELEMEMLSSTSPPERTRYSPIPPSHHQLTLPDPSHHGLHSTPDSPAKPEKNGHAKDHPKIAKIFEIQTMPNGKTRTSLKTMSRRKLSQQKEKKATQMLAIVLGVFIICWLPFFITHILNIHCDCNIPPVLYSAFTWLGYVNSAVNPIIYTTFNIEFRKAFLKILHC

In the case of `O=c1ccc2ccc(OCCCCN3CCN(c4cccc(C5CC5)n4)CC3)nc2[nH]1` [Example B29, 7-{4-[4-(6-Cyclopropyl-pyridin-2-yl)-piperazin-1-yl]-butoxy}-1H-[1,8]naphthyridin-2-one], the Emax at 1 µM (Table 1) was determined as 32%.
In turn, `CCN1CCCc2c1cccc2N1CCN(CCCCOc2ccc3ccc(=O)[nH]c3n2)CC1` [Example B29′, 7-{4-[4-(1-Ethyl-1,2,3,4-tetrahydro-quinolin-5-yl)-piperazin-1-yl]-butoxy}-1H-[1,8]naphthyridin-2-one] displayed an Emax at 1 µM (Table 2) of 26%.
Where the note is “Table 1”, `O=c1ccc2ccc(OCCCCN3CCN(c4ncccn4)CC3)nc2[nH]1` [Example B30, 7-[4-(4-Pyrimidin-2-yl-piperazin-1-yl)-butoxy]-1H-[1,8]naphthyridin-2-one] yielded an Emax at 1 µM of 83%.
Regarding `COc1ccc2cccc(N3CCN(CCCCOc4ccc5ccc(=O)[nH]c5n4)CC3)c2n1` [Example B30′, 7-{4-[4-(2-Methoxy-quinolin-8-yl)-piperazin-1-yl]-butoxy}-1H-[1,8]naphthyridin-2-one], the Emax at 1 µM (Table 2) came to 42%.
For the compound `COc1ccnc(N2CCN(CCCCOc3ccc4ccc(=O)[nH]c4n3)CC2)n1` [Example B31, 7-{4-[4-(4-Methoxy-pyrimidin-2-yl)-piperazin-1-yl]-butoxy}-1H-[1,8]naphthyridin-2-one], the Emax at 1 µM (Table 1) was 76%.
On the same count and under the same terms, as for `O=c1ccc2ccc(OCCCCN3CCN(c4cccc5c4CCC5)CC3)nc2[nH]1` [Example B32, 7-[4-(4-Indan-4-yl-piperazin-1-yl)-butoxy]-1H-[1,8]naphthyridin-2-one], the figure is 19%; as for `O=c1ccc2ccc(OCCCCN3CCN(c4cccc5c4CCCC5)CC3)nc2[nH]1` [Example B33, 7-{4-[4-(5,6,7,8-Tetrahydro-naphthalen-1-yl)-piperazin-1-yl]-butoxy}-1H-[1,8]naphthyridin-2-one], 26%.
Take `O=c1ccc2ccc(OCCCCN3CCN(c4cccc5ncc(F)cc45)CC3)nc2[nH]1` [Example B34′, 7-{4-[4-(3-Fluoro-quinolin-5-yl)-piperazin-1-yl]-butoxy}-1H-[1,8]naphthyridin-2-one]: the maximal response (Emax) at 1 µM (Table 2) was determined as 35%.
The compound `O=C1CCCc2cccc(N3CCN(CCCCOc4ccc5ccc(=O)[nH]c5n4)CC3)c21` [Example B35, 7-{4-[4-(8-Oxo-5,6,7,8-tetrahydro-naphthalen-1-yl)-piperazin-1-yl]-butoxy}-1H-[1,8]naphthyridin-2-one] came in with an Emax at 1 µM (Table 1) of 20%.
Still for that read-out and setting: with `CC1(C)CCc2cccc(N3CCN(CCCCOc4ccc5ccc(=O)[nH]c5n4)CC3)c2C1=O` [Example B36, 7-{4-[4-(7,7-Dimethyl-8-oxo-5,6,7,8-tetrahydro-naphthalen-1-yl)-piperazin-1-yl]-butoxy}-1H-[1,8]naphthyridin-2-one] the figure was 39%.
`O=c1ccc2ccc(OCCCCN3CCN(c4cccc5ccc(=O)[nH]c45)CC3)nc2[nH]1` [Example B36′, 7-{4-[4-(2-Oxo-1,2-dihydro-quinolin-8-yl)-piperazin-1-yl]-butoxy}-1H-[1,8]naphthyridin-2-one] registered an Emax at 1 µM (Table 2) of 36%.
In turn, `O=C1CCc2cccc(N3CCN(CCCCOc4ccc5ccc(=O)[nH]c5n4)CC3)c2N1` [Example B37′, 7-{4-[4-(2-Oxo-1,2,3,4-tetrahydro-quinolin-8-yl)-piperazin-1-yl]-butoxy}-1H-[1,8]naphthyridin-2-one] gave an Emax at 1 µM (Table 2) of 39%.
The same measure, in the same setting: as for `CN1C(=O)CCc2cccc(N3CCN(CCCCOc4ccc5ccc(=O)[nH]c5n4)CC3)c21` [Example B38′, 7-{4-[4-(1-Methyl-2-oxo-1,2,3,4-tetrahydro-quinolin-8-yl)-piperazin-1-yl]-butoxy}-1H-[1,8]naphthyridin-2-one], the figure is 46%.
`O=c1ccc2ccc(OCCCCN3CCN(c4cccc5nonc45)CC3)nc2[nH]1` [Example B39′, 7-[4-(4-Benzo[1,2,5]oxadiazol-4-yl-piperazin-1-yl)-butoxy]-1H-[1,8]naphthyridin-2-one] showed an Emax at 1 µM (Table 2) of 29%.
Compound `O=C1CCc2cccc(N3CCN(CCCCOc4ccc5ccc(=O)[nH]c5n4)CC3)c2C1` [Example B40, 7-{4-[4-(7-Oxo-5,6,7,8-tetrahydro-naphthalen-1-yl)-piperazin-1-yl]-butoxy}-1H-[1,8]naphthyridin-2-one] registered an Emax at 1 µM (Table 1) of 36%.
On to `O=c1ccc2ccc(OCCCCN3CCN(c4cccc5nsnc45)CC3)nc2[nH]1` [Example B40′, 7-[4-(4-Benzo[1,2,5]thiadiazol-4-yl-piperazin-1-yl)-butoxy]-1H-[1,8]naphthyridin-2-one], for which the Emax at 1 µM (Table 2) came out at 49%.
`O=c1ccc2ccc(OCCCCN3CCN(c4cccc5c4CCCC5(F)F)CC3)nc2[nH]1` [Example B43, 7-{4-[4-(5,5-Difluoro-5 6,7,8-tetrahydro-naphthalen-1-yl)-piperazin-1-yl]-butoxy}-1H-[1,8]naphthyridin-2-one] displayed an Emax at 1 µM (Table 1) of 18%.
On the same count and under the same terms, with `O=C1CCc2cccc(N3CCN(CCCCOc4ccc5ccc(=O)[nH]c5n4)CC3)c21` [Example B44, 7-{4-[4-(3-Oxo-indan-4-yl)-piperazin-1-yl]-butoxy}-1H-[1,8]naphthyridin-2-one] the figure was 27%; with `O=c1ccc2ccc(OCCCCN3CCN(c4cccc5c4CC(F)(F)C5)CC3)nc2[nH]1` [Example B46, 7-{4-[4-(2,2-Difluoro-indan-4-yl)-piperazin-1-yl]-butoxy}-1H-[1,8]naphthyridin-2-one], 29%.
Still for that read-out and setting: as for `O=c1ccc2ccc(OCCCCN3CCN(c4cccc5ccccc45)CC3)nc2[nH]1` [Example B47, 7-[4-(4-Naphthalen-1-yl-piperazin-1-yl)-butoxy]-1H-[1,8]naphthyridin-2-one], the figure is 44%; as for `O=c1ccc2ccc(OCCCCN3CCN(c4cccc5cccc(F)c45)CC3)nc2[nH]1` [Example B50, 7-{4-[4-(8-Fluoro-naphthalen-1-yl)-piperazin-1-yl]-butoxy}-1H-[1,8]naphthyridin-2-one], 51%.
Same read-out and setting: as for `O=c1ccc2ccc(OCCCCN3CCN(c4cccc5c(F)cccc45)CC3)nc2[nH]1` [Example B51, 7-{4-[4-(5-Fluoro-naphthalen-1-yl)-piperazin-1-yl]-butoxy}-1H-[1,8]naphthyridin-2-one], the figure is 36%; as for `O=c1ccc2ccc(OCCCCN3CCN(c4ccc(F)c5ccccc45)CC3)nc2[nH]1` [Example B52, 7-{4-[4-(4-Fluoro-naphthalen-1-yl)-piperazin-1-yl]-butoxy}-1H-[1,8]naphthyridin-2-one], 17%.
The compound `O=c1ccc2ccc(OCCCCN3CCN(c4c(F)ccc5ccccc45)CC3)nc2[nH]1` [Example B54, 7-{4-[4-(2-Fluoro-naphthalen-1-yl)-piperazin-1-yl]-butoxy}-1H-[1,8]naphthyridin-2-one] yielded an Emax at 1 µM (Table 1) of 15%.
Same read-out and setting: as for `O=c1ccc2ccc(OCCCCN3CCN(c4cccc5ccc(Cl)cc45)CC3)nc2[nH]1` [Example B56, 7-{4-[4-(7-Chloro-naphthalen-1-yl)-piperazin-1-yl]-butoxy}-1H-[1,8]naphthyridin-2-one], the figure is 28%.
`O=c1ccc2ccc(OCCCCN3CCN(c4cccc5cc(Cl)ccc45)CC3)nc2[nH]1` [Example B57, 7-{4-[4-(6-Chloro-naphthalen-1-yl)-piperazin-1-yl]-butoxy}-1H-[1,8]naphthyridin-2-one] yielded an Emax at 1 µM (Table 1) of 21%.

The term Emax denotes the size of the effect at its maximum, as opposed to the concentration needed.
